pEC50: −log10 of the molar value. Like-named read-outs stand apart in the source and are kept apart here.
What was measured:
5-HT1D = 5-HT1D (Homo sapiens, UniProt P28221); experiment: 5-HT receptor activity (Table 3), 5-HT1D; assay type: cell-based
5-HT1E = 5-HT1E (Homo sapiens, UniProt P28566); experiment: 5-HT receptor activity (Table 3), 5-HT1E; assay type: cell-based
5-HT1F = target: T1, 5-HT1F (Homo sapiens, UniProt P30939); experiment: 5-HT receptor activity (Table 3), 5-HT1F; assay type: cell-based
T1 sequence (P30939 1-366): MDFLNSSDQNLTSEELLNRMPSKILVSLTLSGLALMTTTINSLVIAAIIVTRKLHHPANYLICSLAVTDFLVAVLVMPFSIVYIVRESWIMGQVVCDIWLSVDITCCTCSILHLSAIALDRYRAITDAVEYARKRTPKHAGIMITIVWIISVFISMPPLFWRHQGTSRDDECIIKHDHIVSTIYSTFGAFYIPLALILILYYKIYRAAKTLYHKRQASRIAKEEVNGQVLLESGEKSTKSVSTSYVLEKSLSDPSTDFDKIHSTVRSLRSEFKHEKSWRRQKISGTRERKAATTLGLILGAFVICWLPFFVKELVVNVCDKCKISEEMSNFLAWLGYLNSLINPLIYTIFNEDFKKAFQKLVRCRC

5-HT2B = 5-HT2B (Homo sapiens, UniProt P41595); experiment: 5-HT receptor activity (Table 3), 5-HT2B; assay type: cell-based
5-HT2B, sequence (P41595 whole entry, species assumed): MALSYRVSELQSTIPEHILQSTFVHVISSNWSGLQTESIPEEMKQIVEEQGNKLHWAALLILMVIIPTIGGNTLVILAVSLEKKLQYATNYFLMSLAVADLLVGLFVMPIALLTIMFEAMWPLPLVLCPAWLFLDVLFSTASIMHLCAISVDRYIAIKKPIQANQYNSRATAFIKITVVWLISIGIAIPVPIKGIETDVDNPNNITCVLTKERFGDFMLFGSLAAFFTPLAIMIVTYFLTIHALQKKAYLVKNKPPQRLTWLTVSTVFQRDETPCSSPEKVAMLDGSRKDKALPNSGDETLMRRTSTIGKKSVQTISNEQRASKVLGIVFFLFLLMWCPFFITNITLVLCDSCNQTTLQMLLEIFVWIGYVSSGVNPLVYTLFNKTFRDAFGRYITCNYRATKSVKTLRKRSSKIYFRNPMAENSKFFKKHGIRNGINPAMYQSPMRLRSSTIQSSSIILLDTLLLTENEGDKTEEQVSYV

5-HT2C [1] = target: T2, 5-HT2C (Homo sapiens, UniProt P28335); experiment: cell-based; details: Table 3
T2 sequence (P28335 33-458): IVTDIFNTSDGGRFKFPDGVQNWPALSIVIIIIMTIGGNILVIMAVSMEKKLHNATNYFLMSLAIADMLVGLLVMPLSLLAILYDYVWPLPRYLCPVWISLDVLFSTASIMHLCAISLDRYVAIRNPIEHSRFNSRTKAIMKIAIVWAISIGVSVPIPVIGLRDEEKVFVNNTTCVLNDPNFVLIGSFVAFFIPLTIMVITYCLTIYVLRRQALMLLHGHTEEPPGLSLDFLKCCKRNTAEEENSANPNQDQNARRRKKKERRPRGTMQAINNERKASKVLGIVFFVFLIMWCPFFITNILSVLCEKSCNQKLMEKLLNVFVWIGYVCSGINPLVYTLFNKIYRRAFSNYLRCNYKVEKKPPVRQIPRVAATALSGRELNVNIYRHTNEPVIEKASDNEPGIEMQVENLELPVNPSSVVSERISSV

5-HT4 = 5-HT4 (Homo sapiens, UniProt Q13639); experiment: 5-HT receptor activity (Table 3), 5-HT4; assay type: cell-based
5-HT4, sequence (Q13639 whole entry, species assumed): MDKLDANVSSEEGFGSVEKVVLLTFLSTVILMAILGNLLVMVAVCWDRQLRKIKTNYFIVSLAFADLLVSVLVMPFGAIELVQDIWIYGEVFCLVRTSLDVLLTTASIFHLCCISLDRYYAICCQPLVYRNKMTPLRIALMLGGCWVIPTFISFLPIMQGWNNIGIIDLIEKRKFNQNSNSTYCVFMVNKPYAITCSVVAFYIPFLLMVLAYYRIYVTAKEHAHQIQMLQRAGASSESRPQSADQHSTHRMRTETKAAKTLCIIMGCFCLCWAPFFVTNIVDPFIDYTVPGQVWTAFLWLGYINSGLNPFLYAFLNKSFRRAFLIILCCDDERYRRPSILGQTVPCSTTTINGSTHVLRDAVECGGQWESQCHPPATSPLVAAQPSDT

5-HT6 = 5-HT6 (Homo sapiens, UniProt P50406); experiment: 5-HT receptor activity (Table 3), 5-HT6; assay type: cell-based
5-HT6, sequence (P50406 whole entry, species assumed): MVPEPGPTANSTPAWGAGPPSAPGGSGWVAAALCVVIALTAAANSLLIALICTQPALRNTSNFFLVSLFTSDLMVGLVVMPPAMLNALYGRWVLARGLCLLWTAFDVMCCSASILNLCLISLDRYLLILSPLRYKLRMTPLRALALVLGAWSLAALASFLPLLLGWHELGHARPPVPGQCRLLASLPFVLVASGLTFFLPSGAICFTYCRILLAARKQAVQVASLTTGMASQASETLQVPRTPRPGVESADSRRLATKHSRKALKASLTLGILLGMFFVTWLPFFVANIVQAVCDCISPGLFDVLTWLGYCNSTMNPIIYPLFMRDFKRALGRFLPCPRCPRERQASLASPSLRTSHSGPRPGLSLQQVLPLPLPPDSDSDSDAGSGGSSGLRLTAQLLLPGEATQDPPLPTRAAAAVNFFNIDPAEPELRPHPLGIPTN

5-HT7 = 5-HT7 (Homo sapiens, UniProt P34969); experiment: 5-HT receptor activity (Table 3), 5-HT7; assay type: cell-based
5-HT7, sequence (P34969 whole entry, species assumed): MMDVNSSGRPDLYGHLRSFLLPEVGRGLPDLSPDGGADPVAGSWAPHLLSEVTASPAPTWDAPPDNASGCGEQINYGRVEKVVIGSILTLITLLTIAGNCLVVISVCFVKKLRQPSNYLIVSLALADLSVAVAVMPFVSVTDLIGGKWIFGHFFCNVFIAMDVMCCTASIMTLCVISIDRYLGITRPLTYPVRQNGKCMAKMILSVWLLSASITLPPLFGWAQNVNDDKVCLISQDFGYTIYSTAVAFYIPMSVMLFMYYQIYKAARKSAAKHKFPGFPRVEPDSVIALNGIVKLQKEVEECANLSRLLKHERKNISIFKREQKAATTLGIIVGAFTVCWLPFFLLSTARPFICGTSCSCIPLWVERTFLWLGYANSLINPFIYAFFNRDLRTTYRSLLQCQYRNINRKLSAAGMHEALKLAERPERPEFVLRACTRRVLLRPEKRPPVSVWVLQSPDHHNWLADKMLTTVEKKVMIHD

[2] = In vitro hepatocyte clearance, human; assay type: in vitro ADME; details: Human hepatocytes
Experimental: (§1) Additional experimentation was performed on compounds 1, W5, and A93. Table 6a, 6b and 6c summarize, among other things, the anticipated hepatic clearance of compounds 1, W5 and A93 respectively, in various species, as specified in Table 6a, 6b and 6c and as determined by calculating the in vitro hepatocyte clearance over time and scaling such rate with such species' hepatocyte count and the anticipated liver blood flow rate in such species.

hepatocyte [3] = experiment: In vitro hepatocyte clearance, human; assay type: in vitro ADME; details: Human
Experimental: as §1

[4] = In vitro hepatocyte clearance, monkey; assay type: in vitro ADME; details: Monkey hepatocytes
Experimental: as §1

hepatocyte [5] = experiment: In vitro hepatocyte clearance, monkey; assay type: in vitro ADME; details: Monkey
Experimental: as §1

[6] = In vitro hepatocyte clearance, mouse; assay type: in vitro ADME; details: Mouse hepatocytes
Experimental: as §1

hepatocyte [7] = experiment: In vitro hepatocyte clearance, mouse; assay type: in vitro ADME; details: Mouse
Experimental: as §1

5-HT2C [8] = target: T2, 5-HT2C; experiment: cell-based; assay type: cell-based; design: expressed in transfected cells; host or cells: HEK293T

5-HT1E, sequence (P28566 whole entry, species assumed): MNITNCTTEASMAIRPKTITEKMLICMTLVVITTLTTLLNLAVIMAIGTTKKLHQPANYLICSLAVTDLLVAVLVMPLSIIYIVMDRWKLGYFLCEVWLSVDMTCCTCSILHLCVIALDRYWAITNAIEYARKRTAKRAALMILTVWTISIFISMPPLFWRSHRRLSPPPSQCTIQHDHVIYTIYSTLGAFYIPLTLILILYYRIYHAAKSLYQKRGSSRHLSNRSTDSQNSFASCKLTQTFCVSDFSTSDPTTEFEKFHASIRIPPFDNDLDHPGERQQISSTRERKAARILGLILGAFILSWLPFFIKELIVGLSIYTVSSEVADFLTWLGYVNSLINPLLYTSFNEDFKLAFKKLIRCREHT
5-HT1D, sequence (P28221 whole entry, species assumed): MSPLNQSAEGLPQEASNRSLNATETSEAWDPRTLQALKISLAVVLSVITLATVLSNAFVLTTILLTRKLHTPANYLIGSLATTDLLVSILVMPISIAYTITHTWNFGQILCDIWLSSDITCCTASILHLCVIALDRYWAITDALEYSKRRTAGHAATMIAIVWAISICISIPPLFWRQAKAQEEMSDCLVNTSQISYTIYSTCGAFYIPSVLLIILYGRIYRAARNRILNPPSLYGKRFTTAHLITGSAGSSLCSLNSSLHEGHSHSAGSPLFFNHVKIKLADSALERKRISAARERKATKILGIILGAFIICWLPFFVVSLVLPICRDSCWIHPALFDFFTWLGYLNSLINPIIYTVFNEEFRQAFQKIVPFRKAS

Cc1ccc(O)c2c3c([nH]c12)CCNCC3 [Cpd #1 (Pharm-136), 7-Methyl-1,2,3,4,5,6-hexahydroazepino[4,5-b]indol-10-ol]
pEC50 (5-HT1D): 6.49 | Eff (5-HT1D): 72% | pEC50 (5-HT1E): 6.01 | Eff (5-HT1E): 94% | pEC50 (5-HT1F): 6.34 | Eff (5-HT1F): 56% | pEC50 (5-HT2B): 8.38 | Eff (5-HT2B; 5-HT2B, Table 3): 50% | pEC50 (5-HT2C [1]): 9.30 | Eff (5-HT2C [1]): 95% | EC50 (5-HT4): Not active | pEC50 (5-HT6): 7.27 | Eff (5-HT6): 55% | EC50 (5-HT7): Not active | hepatocyte CLint [2]: < 2.71 µL/min/1e6 cells | half-life ([2]; read-out: In vitro T1/2): > 8.53 h | CLint scaled ([2]; read-out: Scale-up Clint): < 6.89 mL/min/kg | Hepatic Extraction Ratio (E) (hepatocyte [3]): <0.25 | Predicted hepatic CL (hepatocyte [3]): <5.17 mL/min/kg | hepatocyte CLint [4]: < 2.71 µL/min/1e6 cells | half-life ([4]; read-out: In vitro T1/2): > 8.53 h | CLint scaled ([4]; read-out: Scale-up Clint): < 9.75 mL/min/kg | Hepatic Extraction Ratio (E) (hepatocyte [5]): <0.18 | Predicted hepatic CL (hepatocyte [5]): <7.97 mL/min/kg | hepatocyte CLint [6]: 33 µL/min/1e6 cells | half-life ([6]; read-out: In vitro T1/2): 0.703 h | CLint scaled ([6]; read-out: Scale-up Clint): 389 mL/min/kg | Hepatic Extraction Ratio (E) (hepatocyte [7]): 0.81 | Predicted hepatic CL (hepatocyte [7]): 73.10 mL/min/kg | Count (n. of wells) (TA98; TA98 + S9, 1.0E−04M): 0 n. of wells | Significance (TA98; TA98 + S9, 1.0E−04M): Negative | Count (n. of wells) (TA98; TA98 + S9, 1.0E−05M): 3 n. of wells | Significance (TA98; TA98 + S9, 1.0E−05M): Negative | Count (n. of wells) (TA98; TA98 + S9, 5.0E−05M): 0 n. of wells | Significance (TA98; TA98 + S9, 5.0E−05M): Negative | Count (n. of wells) (TA98; TA98 + S9, 5.0E−06M): 9 n. of wells | Significance (TA98; TA98 + S9, 5.0E−06M): Weak positive | Count (n. of wells) (TA98; TA98 − S9, 1.0E−04M): 0 n. of wells | Significance (TA98; TA98 − S9, 1.0E−04M): Negative | Count (n. of wells) (TA98; TA98 − S9, 1.0E−05M): 0 n. of wells | Significance (TA98; TA98 − S9, 1.0E−05M): Negative | Count (n. of wells) (TA98; TA98 − S9, 5.0E−05M): 0 n. of wells | Significance (TA98; TA98 − S9, 5.0E−05M): Negative | Count (n. of wells) (TA98; TA98 − S9, 5.0E−06M): 1 n. of wells | Significance (TA98; TA98 − S9, 5.0E−06M): Negative | Count (n. of wells) (TA100; TA100 + S9, 1.0E−04M): 0 n. of wells | Significance (TA100; TA100 + S9, 1.0E−04M): Negative | Count (n. of wells) (TA100; TA100 + S9, 1.0E−05M): 8 n. of wells | Significance (TA100; TA100 + S9, 1.0E−05M): Negative | Count (n. of wells) (TA100; TA100 + S9, 5.0E−05M): 1 n. of wells | Significance (TA100; TA100 + S9, 5.0E−05M): Negative | Count (n. of wells) (TA100; TA100 + S9, 5.0E−06M): 13 n. of wells | Significance (TA100; TA100 + S9, 5.0E−06M): Negative | Count (n. of wells) (TA100; TA100 − S9, 1.0E−04M): 0 n. of wells | Significance (TA100; TA100 − S9, 1.0E−04M): Negative | Count (n. of wells) (TA100; TA100 − S9, 1.0E−05M): 1 n. of wells | Significance (TA100; TA100 − S9, 1.0E−05M): Negative | Count (n. of wells) (TA100; TA100 − S9, 5.0E−05M): 0 n. of wells | Significance (TA100; TA100 − S9, 5.0E−05M): Negative | Count (n. of wells) (TA100; TA100 − S9, 5.0E−06M): 2 n. of wells | Significance (TA100; TA100 − S9, 5.0E−06M): Negative | pEC50 (5-HT2C [8]; Gq dissociation BRET, HEK293T): 9.30 | 5-HT2C BRET Eff (5-HT2C [8]; normalized to % 5-HT stimulation): 101%

— patent US20250296934A1, “AZEPINOINDOLES AND METHODS OF PREPARATION THEREOF” (priority 2022, published 2025)
